Marks after values point to notes of the source that are not given here.
Assay: Growth performance of broilers given FeQ or FeTyr in water/feed, dirty litter Campylobacter challenge at day 20 (Example 1)
Type: in vivo, Ross 308 male broilers
Details: for AWG (average weight gain) Day 0-20 / MFCR (mortality adjusted) Day 0-20 / AFD (average feed intake) Day 0-20: before challenge
Experimental: A study was performed to evaluate growth promotion and reduction of Campylobacter carriage using FeQ and FeTyr in Ross 308 male broilers with 7 treatment groups. Each treatment group comprised four replicates of 10 birds per pen (40 birds/treatment group and 4 pens of 10 birds/treatment group), with 2 control groups and 5 test groups. All the test groups and one of the control groups were exposed at day 20 of the trial to dirty litter, which tested positive for Campylobacter. This method was used to provide a more natural method to Campylobacter challenge the birds. Thus there was a positive control where one treatment group was challenged with Campylobacter and one negative control group where the birds were not challenged, and five treatment groups that were all challenged with Campylobacter. The total number of birds used in the 7 treatment groups was 280. Treatment group 1 was a negative control where birds just received the commercial feed, and were not challenged with dirty litter containing Campylobacter. Treatment group 2 was the positive control where the birds received the commercial feed, and were challenged with dirty litter containing Campylobacter at day 20. Treatment group 3 received 0.22 g/L of FeQ in their drinking water and 0.22 g/Kg FeQ in their feed during the entire trial, and was challenged with dirty litter containing Campylobacter at day 20. Treatment group 5 received 0.22 g/L of FeQ in their drinking water during the entire trial, and was challenged with dirty litter containing Campylobacter at day 20. Treatment group 6 received 0.22 g/kg FeQ in their feed during the entire trial, and was challenged with dirty litter containing Campylobacter at day 20. Treatment group 7 received 0.022 g/L FeQ in their drinking water during the entire trial, and was challenged with dirty litter containing Campylobacter at day 20. Treatment group 8 received 0.02 g/L FeTyr in their drinking water during the entire trial, and was challenged with dirty litter containing Campylobacter at day 20. The FeTyr was pre-dissolved in DMSO, and diluted to provide a solution of 0.02 g/L of FeTyr in water. (An additional treatment group 4 was terminated due to solubility issues.)
The birds were fed with a commercial three-phase feeding program using starter, grower and finisher feeds with formulations shown in Table 2. All diets had coccidiostat (MAXIBAN® at 0.0625% in starter and […] and MONTEBAN® at 0.06% in finisher phase). Xylanase (RONOZYME® WX at 200 g per ton) and phytase (RONOZYME® P at 150 grams per ton) were added to all diets.
The feeding program is show in Table 3. The birds were reared in floor pens to day 42, and fed starter, grower and finisher feed at day 0 to 11, 11 to 24, and 24 to 42 days, respectively. All birds were weighed individually and feed weigh backs recorded per pen at day 0, 11, 21, 24 and 42 days.
Prior to challenging the chickens with dirty litter containing Campylobacter at day 20, each pen was tested for Campylobacter using cloacal swabs. All pens tested negative for Campylobacter prior to the challenge. At day 20, litter, which was naturally Campylobacter-contaminated, was tested to confirm the presence of Campylobacter, and then added (approximately 2 kg/pen) to the litter in all pens except in pens for treatment group 1 (the negative control). At day 28, the pen litter was sampled to confirm the presence or absence of Campylobacter. At day 41 and 42, caecal samples were taken from 3 birds per pen (12 birds per treatment group) and tested for Campylobacter enumeration. At day 42, digesta, fecal samples, and caecal content was taken from all birds, and pooled per pen. Two birds per pen were also taken from treatment groups 1-3, euthanized, and blood samples taken. […]

[1] = treatment 5: 0.22 g/L FeQ in water
[2] = treatment 6: 0.22 g/kg FeQ in feed
[3] = treatment 7: 0.022 g/L FeQ in water

## O=C([O-])C1(O)CC(O)C(O)C(O)C1.O=C([O-])C1(O)CC(O)C(O)C(O)C1.O=C([O-])C1(O)CC(O)C(O)C(O)C1.[Fe+3] (stereo not drawn) [FeQ, Ferric Quinate]
[1]
  AWG (average weight gain) Day 0-20: 0.903 kg
  MFCR (mortality adjusted) Day 0-20: 1.303
[2]
  ABW (average body weight) Day 0: 0.041 kg
  ABW (average body weight) Day 11: 0.351 kg
  ABW (average body weight) Day 20: 0.991 kg
  ABW (average body weight) Day 25: 1.426 kg
  ABW (average body weight) Day 42: 3.464 kg
  AFD (average feed intake) Day 0-11: 0.360 kg
  AFD (average feed intake) Day 0-42: 5.201 kg
  AFD (average feed intake) Day 11-20: 0.841 kg
  AFD (average feed intake) Day 11-25: 1.526 kg
  AFD (average feed intake) Day 20-25: 0.685 kg
  AFD (average feed intake) Day 20-42: 4.001 kg
  AFD (average feed intake) Day 25-42: 3.315 kg
  AWG (average weight gain) Day 0-11: 0.310 kg
  AWG (average weight gain) Day 0-42: 3.423^b kg
  AWG (average weight gain) Day 11-20: 0.640 kg
  AWG (average weight gain) Day 11-25: 1.075 kg
  AWG (average weight gain) Day 20-25: 0.434 kg
  AWG (average weight gain) Day 20-42: 2.473^ab kg
  AWG (average weight gain) Day 25-42: 2.039^b kg
  EPEF (European production and efficiency factor) Day 20: 364.8
  EPEF (European production and efficiency factor) Day 42: 265.0
  MFCR (mortality adjusted FCR) Day 11-20: 1.343
  MFCR (mortality adjusted FCR) Day 11-25: 1.440
  MFCR (mortality adjusted FCR) Day 20-25: 1.599
  MFCR (mortality adjusted FCR) Day 25-42: 1.704
  MFCR (mortality adjusted feed conversion ratio) Day 0-11: 1.168^a
  MFCR (mortality adjusted) Day 0-42: 1.563
  MFCR (mortality adjusted) Day 20-42: 1.678
  AFD (average feed intake) Day 0-20: 1.201 kg
  AWG (average weight gain) Day 0-20: 0.951 kg
  MFCR (mortality adjusted) Day 0-20: 1.284
[3]
  ABW (average body weight) Day 0: 0.040 kg
  ABW (average body weight) Day 11: 0.325 kg
  ABW (average body weight) Day 20: 0.947 kg
  ABW (average body weight) Day 25: 1.388 kg
  ABW (average body weight) Day 42: 3.304 kg
  AFD (average feed intake) Day 0-11: 0.348 kg
  AFD (average feed intake) Day 0-42: 5.201 kg
  AFD (average feed intake) Day 11-20: 0.829 kg
  AFD (average feed intake) Day 11-25: 1.490 kg
  AFD (average feed intake) Day 20-25: 0.661 kg
  AFD (average feed intake) Day 20-42: 4.023 kg
  AFD (average feed intake) Day 25-42: 3.362 kg
  AWG (average weight gain) Day 0-11: 0.285 kg
  AWG (average weight gain) Day 0-42: 3.265^ab kg
  AWG (average weight gain) Day 11-20: 0.622 kg
  AWG (average weight gain) Day 11-25: 1.064 kg
  AWG (average weight gain) Day 20-25: 0.441 kg
  AWG (average weight gain) Day 20-42: 2.357^ab kg
  AWG (average weight gain) Day 25-42: 1.916^ab kg
  EPEF (European production and efficiency factor) Day 20: 354.5
  EPEF (European production and efficiency factor) Day 42: 276.2
  MFCR (mortality adjusted FCR) Day 11-20: 1.333
  MFCR (mortality adjusted FCR) Day 11-25: 1.406
  MFCR (mortality adjusted FCR) Day 20-25: 1.513
  MFCR (mortality adjusted FCR) Day 25-42: 1.793
  MFCR (mortality adjusted feed conversion ratio) Day 0-11: 1.236^b
  MFCR (mortality adjusted) Day 0-42: 1.612
  MFCR (mortality adjusted) Day 20-42: 1.739
  AFD (average feed intake) Day 0-20: 1.178 kg
  AWG (average weight gain) Day 0-20: 0.907 kg
  MFCR (mortality adjusted) Day 0-20: 1.302
Treatment groups 3, 5, 6, 7 and 8, challenged with dirty litter
  effect on MFCR at day 42 compared with positive control (FIG. 2): positive effect on MFCR
Treatment groups 3, 5, 6, 7 and 8, challenged with dirty litter containing Campylobacter
  effect on growth: average body weight at day 42 compared with positive control (FIG. 1): positive effect on growth
